Laboratory results from ChEMBL document CHEMBL3627713, “Triazole linked mono carbonyl curcumin-isatin bifunctional hybrids as novel anti tubulin agents: Design, synthesis, biological evaluation and molecular modeling studies” (Bioorg Med Chem, 2015).

tested on: COLO 205; assay: Cytotoxicity against human COLO205 cells assessed as growth inhibition at 50 uM after 48 hrs by sulforhodamine B assay relative to control; assay type: functional; settings: COLO 205, 48 h, read-out: GI

Row | Compound | inhibition of growth at 50 µM
1 | COc1cc(/C=C/C(=O)/C=C/c2ccc(Br)cc2)ccc1OCc1cn(CCN2C(=O)C(=O)c3cc(Br)ccc32)nn1 | 19%
2 | COc1cc(/C=C/C(=O)/C=C/c2ccc(Cl)cc2)ccc1OCc1cn(CCN2C(=O)C(=O)c3ccccc32)nn1 | 50%
3 | COc1cc(/C=C/C(=O)/C=C/c2ccco2)ccc1OCc1cn(CCN2C(=O)C(=O)c3cc(Cl)ccc32)nn1 | 39%
4 | COc1cc(/C=C/C(=O)/C=C/c2ccc(Br)cc2)ccc1OCc1cn(CCN2C(=O)C(=O)c3cc(Cl)ccc32)nn1 | 20%
5 | COc1cc(/C=C/C(=O)/C=C/c2cccc(Br)c2)ccc1OCc1cn(CCN2C(=O)C(=O)c3cc(Br)ccc32)nn1 | 11%
6 | COc1cccc(/C=C/C(=O)/C=C/c2ccc(OCc3cn(CCN4C(=O)C(=O)c5cc(Cl)ccc54)nn3)c(OC)c2)c1 | 52%
7 | COc1cc(/C=C/C(=O)/C=C/c2cccc(Br)c2)ccc1OCc1cn(CCN2C(=O)C(=O)c3ccccc32)nn1 | 36%
8 | COc1cc(/C=C/C(=O)/C=C/c2ccc(Br)cc2)ccc1OCc1cn(CCN2C(=O)C(=O)c3ccccc32)nn1 | 47%

tested on: HeLa; assay: Cytotoxicity against human HeLa cells assessed as growth inhibition at 50 uM after 48 hrs by sulforhodamine B assay relative to control; assay type: functional; settings: read-out: GI

Row | Compound | inhibition of growth at 50 µM
9 | COc1cccc(/C=C/C(=O)/C=C/c2ccc(OCc3cn(CCN4C(=O)C(=O)c5cc(Cl)ccc54)nn3)c(OC)c2)c1 | 10%

tested on: A549; assay: Cytotoxicity against human A549 cells assessed as growth inhibition at 50 uM after 48 hrs by sulforhodamine B assay relative to control; assay type: functional; settings: A549, 48 h, read-out: GI

Row | Compound | inhibition of growth at 50 µM
10 | COc1cccc(/C=C/C(=O)/C=C/c2ccc(OCc3cn(CCN4C(=O)C(=O)c5cc(Cl)ccc54)nn3)c(OC)c2)c1 | 13%

tested on: THP-1; assay: Cytotoxicity against human THP1 cells assessed as growth inhibition at 50 uM after 48 hrs by sulforhodamine B assay relative to control; assay type: functional; settings: THP-1, 48 h, read-out: GI

Row | Compound | inhibition of growth at 50 µM
11 | COc1cc(/C=C/C(=O)/C=C/c2ccc(Br)cc2)ccc1OCc1cn(CCN2C(=O)C(=O)c3cc(Br)ccc32)nn1 | 21%
12 | COc1cc(/C=C/C(=O)/C=C/c2ccc(Cl)cc2)ccc1OCc1cn(CCN2C(=O)C(=O)c3ccccc32)nn1 | 49%
13 | COc1cc(/C=C/C(=O)/C=C/c2ccco2)ccc1OCc1cn(CCN2C(=O)C(=O)c3cc(Cl)ccc32)nn1 | 41%
14 | COc1cc(/C=C/C(=O)/C=C/c2ccc(Br)cc2)ccc1OCc1cn(CCN2C(=O)C(=O)c3cc(Cl)ccc32)nn1 | 25%
15 | COc1cc(/C=C/C(=O)/C=C/c2cccc(Br)c2)ccc1OCc1cn(CCN2C(=O)C(=O)c3cc(Br)ccc32)nn1 | 12%
16 | COc1cccc(/C=C/C(=O)/C=C/c2ccc(OCc3cn(CCN4C(=O)C(=O)c5cc(Cl)ccc54)nn3)c(OC)c2)c1 | 55%
17 | COc1cc(/C=C/C(=O)/C=C/c2cccc(Br)c2)ccc1OCc1cn(CCN2C(=O)C(=O)c3ccccc32)nn1 | 40%
18 | COc1cc(/C=C/C(=O)/C=C/c2ccc(Br)cc2)ccc1OCc1cn(CCN2C(=O)C(=O)c3ccccc32)nn1 | 48%

tested on: PC-3; assay: Cytotoxicity against human PC3 cells assessed as growth inhibition at 50 uM after 48 hrs by sulforhodamine B assay relative to control; assay type: functional; settings: PC-3, 48 h, read-out: GI

Row | Compound | inhibition of growth at 50 µM
19 | COc1cc(/C=C/C(=O)/C=C/c2ccc(Br)cc2)ccc1OCc1cn(CCN2C(=O)C(=O)c3cc(Br)ccc32)nn1 | 17%
20 | COc1cc(/C=C/C(=O)/C=C/c2ccc(Cl)cc2)ccc1OCc1cn(CCN2C(=O)C(=O)c3ccccc32)nn1 | 45%
21 | COc1cc(/C=C/C(=O)/C=C/c2ccco2)ccc1OCc1cn(CCN2C(=O)C(=O)c3cc(Cl)ccc32)nn1 | 40%
22 | COc1cc(/C=C/C(=O)/C=C/c2ccc(Br)cc2)ccc1OCc1cn(CCN2C(=O)C(=O)c3cc(Cl)ccc32)nn1 | 23%
23 | COc1cc(/C=C/C(=O)/C=C/c2cccc(Br)c2)ccc1OCc1cn(CCN2C(=O)C(=O)c3cc(Br)ccc32)nn1 | 13%
24 | COc1cccc(/C=C/C(=O)/C=C/c2ccc(OCc3cn(CCN4C(=O)C(=O)c5cc(Cl)ccc54)nn3)c(OC)c2)c1 | 51%
25 | COc1cc(/C=C/C(=O)/C=C/c2cccc(Br)c2)ccc1OCc1cn(CCN2C(=O)C(=O)c3ccccc32)nn1 | 35%
26 | COc1cc(/C=C/C(=O)/C=C/c2ccc(Br)cc2)ccc1OCc1cn(CCN2C(=O)C(=O)c3ccccc32)nn1 | 44%

tested on: HCT-116; assay: Cytotoxicity against human HCT116 cells assessed as growth inhibition at 50 uM after 48 hrs by sulforhodamine B assay relative to control; assay type: functional; settings: HCT-116, 48 h, read-out: GI

Row | Compound | inhibition of growth at 50 µM
27 | COc1cc(/C=C/C(=O)/C=C/c2ccc(Br)cc2)ccc1OCc1cn(CCN2C(=O)C(=O)c3cc(Br)ccc32)nn1 | 20%
28 | COc1cc(/C=C/C(=O)/C=C/c2ccc(Cl)cc2)ccc1OCc1cn(CCN2C(=O)C(=O)c3ccccc32)nn1 | 51%
29 | COc1cc(/C=C/C(=O)/C=C/c2ccco2)ccc1OCc1cn(CCN2C(=O)C(=O)c3cc(Cl)ccc32)nn1 | 47%
30 | COc1cc(/C=C/C(=O)/C=C/c2ccc(Br)cc2)ccc1OCc1cn(CCN2C(=O)C(=O)c3cc(Cl)ccc32)nn1 | 24%
31 | COc1cc(/C=C/C(=O)/C=C/c2cccc(Br)c2)ccc1OCc1cn(CCN2C(=O)C(=O)c3cc(Br)ccc32)nn1 | 13%
32 | COc1cccc(/C=C/C(=O)/C=C/c2ccc(OCc3cn(CCN4C(=O)C(=O)c5cc(Cl)ccc54)nn3)c(OC)c2)c1 | 58%
33 | COc1cc(/C=C/C(=O)/C=C/c2cccc(Br)c2)ccc1OCc1cn(CCN2C(=O)C(=O)c3ccccc32)nn1 | 42%
34 | COc1cc(/C=C/C(=O)/C=C/c2ccc(Br)cc2)ccc1OCc1cn(CCN2C(=O)C(=O)c3ccccc32)nn1 | 49%
